Results from patent US20170121293A1, “PROCESS FOR PREPARING A NOVEL CRYSTALLINE FORM OF METSULFURON-METHYL AND USE OF THE SAME” (ROTAM AGROCHEM INTERNATIONAL COMPANY LIMITED, priority 2015, published 2017).
Like-named read-outs stand apart in the source and are kept apart here.

What was measured:
[1] = Viscosity when dissolved; assay type: physicochemical
[2] = Cleanout test (residue in polyethylene bottles extracted with acetonitrile); assay type: physicochemical; conditions: dispersed in tap water, stood overnight, lower = more effective cleanout
Experimental: The test was conducted by dispersing in water a sample to produce a concentration that is normally used when applying the herbicide: 25% metsulfuron-methyl. The sample was added to tap water (300 mL) in a 400 mL beaker and magnetically stirred for 2 minutes. The mixture was then stirred for 2 minutes, whereupon the resulting dispersion was dispensed in three 100 mL aliquots to 4-oz (118 mL) polyethylene bottles. The bottles were capped, inverted twice and allowed to stand overnight.
After standing overnight, each individual bottle was inverted twice and the liquid contents were then poured out. Tap water (10 mL) was added and the bottle was inverted until all sediment was re-suspended, whereupon the contents were poured out. Tap water (100 mL) was added and the bottle was inverted twice and then allowed to stand undisturbed for 10 minutes. The bottle was inverted twice more and the contents were poured out. Acetonitrile (10 mL) was added to the bottle to extract any remaining material. The acetonitrile solution was analyzed by reversed-phase liquid chromatography with UV detection. The cleanout rating (the concentration of metsulfuron-methyl herbicide in the acetonitrile solution) is reported in % in Table 6 below.

[3] = assay type: physicochemical; conditions: for Concentration measured by HPLC after treatment: pH 7 buffer, test temperature e.g. 20° C.
Experimental: A stock pH 7 buffer solution was prepared by adding aqueous sodium hydroxide solution (0.1 M, 145 mL) to aqueous potassium dihydrogen phosphate solution (0.1 M, 250 mL), and then adding sufficient distilled water to adjust the final volume to 500 mL. At least 1 time and up to about 5 times the amount of metsulfuron-methyl needed for saturation was added to a mixing vessel containing stock buffer solution at the test temperature (e.g., 20° C.). The mixture was magnetically stirred in the dark while being maintained at the test temperature. Samples were periodically removed for analysis. The samples were centrifuged using a high speed, temperature-controlled centrifuge at the test temperature for about 20 minutes at >12000 G to remove suspended particles. An aliquot of each supernatant was taken for analysis. The concentration of metsulfuron-methyl in the supernatant was determined by a high pressure liquid chromatography (HPLC) with a reversed phase chromatography column and UV detection. The method should include development of best-fit calibration curves based on at least three standards using linear regression analysis Samples were successively withdrawn from the mixing vessel and analyzed until three successive samples show little or no variation in concentration. The test is preferably replicated to ensure accuracy.

[4] = test system: weeds; test: Activity in controlling weeds; conditions: in vivo
[5] = OD formulation, original concentration 40%
[6] = SG formulation, original concentration 25%
[7] = WG formulation, original concentration 25%

| SMILES | Viscosity (in words) ([1]; listed as metsulfuron-methyl in amorphous state) | Cleanout rating (concentration of metsulfuron-methyl in the acetonitrile solution) ([2]; OD formulation) | Cleanout rating (concentration of metsulfuron-methyl in the acetonitrile solution) ([2]; SG formulation) | Cleanout rating (concentration of metsulfuron-methyl in the acetonitrile solution) ([2]; WG formulation) | Concentration measured by HPLC after treatment [3, 5] | Concentration measured by HPLC after treatment [3, 6] | Concentration measured by HPLC after treatment [3, 7] | Viscosity (in words) ([1]; listed as crystalline modification I of metsulfuron-methyl) | Activity in controlling weeds [4] | Solubility (in words) [3] |
| --- | --- | --- | --- | --- | --- | --- | --- | --- | --- | --- |
| COC(=O)c1ccccc1S(=O)(=O)NC(=O)Nc1nc(C)nc(OC)n1 [Amorphous metsulfuron-methyl, methyl 2-[[[[(4-methoxy-6-methyl-1,3,5-triazin-2-yl)amino]carbonyl]amino]sulfonyl]benzoate, reference compound] | highly viscous | 26% | 10% | 13% | 14% | 15% | 12% | – | – | – |
| COC(=O)c1ccccc1S(=O)(=O)NC(=O)Nc1nc(C)nc(OC)n1 [Metsulfuron-methyl, crystalline modification I] [methyl 2-(4-methoxy-6-methyl-1,3,5-triazin-2-ylcarbamoylsulfamoyl)benzoate] | – | 5% | 0.1% | 2% | 35% | 24.9% | 23% | significant decrease | active in controlling weeds | significant increase |
